{"source": "ChEMBL document CHEMBL4304811", "about": "“Development of a Water-Soluble Indolylmaleimide Derivative IM-93 Showing Dual Inhibition of Ferroptosis and NETosis” (ACS Med Chem Lett, 2019)", "key": {"[1]": {"system": "Epidermal growth factor receptor (Homo sapiens), P00533 [UNDEFINED MUTATION]", "test": "Binding affinity to human partial length EGFR L747-T751del/Sins mutant expressed in bacterial expression system assessed as residual binding level at 10 uM by Kinomescan method relative to control"}, "Jurkat": {"system": "Jurkat", "test": "Cytoprotection against fas ligand/cycloheximide/Z-VAD-fmk-induced necroptosis in human Jurkat cells at 4 to 25 uM measured after 20 hrs by WST-8 assay", "assay_type": "functional, cell-based"}, "[2]": {"target": "Discoidin domain-containing receptor 2 (Homo sapiens) (UniProt Q16832)", "sequence (Q16832 whole entry, the tested form may be a part)": "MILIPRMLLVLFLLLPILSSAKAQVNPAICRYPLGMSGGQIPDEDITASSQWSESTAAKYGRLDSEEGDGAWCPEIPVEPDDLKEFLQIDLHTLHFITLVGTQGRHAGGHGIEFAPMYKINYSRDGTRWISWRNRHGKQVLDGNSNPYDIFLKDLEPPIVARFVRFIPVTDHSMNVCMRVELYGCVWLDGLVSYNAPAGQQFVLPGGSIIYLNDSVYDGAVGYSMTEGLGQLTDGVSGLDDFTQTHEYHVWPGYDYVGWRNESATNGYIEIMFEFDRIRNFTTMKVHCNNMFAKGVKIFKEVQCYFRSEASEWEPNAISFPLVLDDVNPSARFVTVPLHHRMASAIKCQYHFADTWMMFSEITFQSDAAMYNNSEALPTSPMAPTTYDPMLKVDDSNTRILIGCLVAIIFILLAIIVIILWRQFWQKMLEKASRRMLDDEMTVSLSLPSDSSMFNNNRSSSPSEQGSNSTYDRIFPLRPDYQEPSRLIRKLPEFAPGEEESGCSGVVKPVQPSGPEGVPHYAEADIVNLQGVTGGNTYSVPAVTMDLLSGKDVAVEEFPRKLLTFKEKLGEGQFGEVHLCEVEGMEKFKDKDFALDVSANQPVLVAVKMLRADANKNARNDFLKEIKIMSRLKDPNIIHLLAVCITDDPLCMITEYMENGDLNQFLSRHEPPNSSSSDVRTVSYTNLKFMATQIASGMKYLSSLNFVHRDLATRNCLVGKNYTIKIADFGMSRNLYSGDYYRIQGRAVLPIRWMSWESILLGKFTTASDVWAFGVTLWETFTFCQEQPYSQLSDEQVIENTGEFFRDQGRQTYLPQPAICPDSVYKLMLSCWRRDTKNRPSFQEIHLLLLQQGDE", "test": "Binding affinity to wild-type human partial length DDR2 (V555 to E855 residues) expressed in mammalian expression system assessed as residual binding level at 10 uM by Kinomescan method relative to control"}, "[3]": {"system": "Tyrosine-protein kinase ABL1 (Homo sapiens), P00519 [H396P]", "test": "Binding affinity to human non-phosphorylated ABL1 H396P mutant (S229 to K512 residues) expressed in mammalian expression system assessed as residual binding level at 10 uM by Kinomescan method relative to control"}, "[4]": {"target": "MAP/microtubule affinity-regulating kinase 3 (Homo sapiens) (UniProt P27448)", "test": "Binding affinity to wild-type human full length MARK3 (M1 to L729 residues) expressed in bacterial expression system assessed as residual binding level at 10 uM by Kinomescan method relative to control"}, "[5]": {"target": "Inhibitor of nuclear factor kappa-B kinase subunit beta (Homo sapiens) (UniProt O14920)", "sequence (O14920 whole entry, the tested form may be a part)": "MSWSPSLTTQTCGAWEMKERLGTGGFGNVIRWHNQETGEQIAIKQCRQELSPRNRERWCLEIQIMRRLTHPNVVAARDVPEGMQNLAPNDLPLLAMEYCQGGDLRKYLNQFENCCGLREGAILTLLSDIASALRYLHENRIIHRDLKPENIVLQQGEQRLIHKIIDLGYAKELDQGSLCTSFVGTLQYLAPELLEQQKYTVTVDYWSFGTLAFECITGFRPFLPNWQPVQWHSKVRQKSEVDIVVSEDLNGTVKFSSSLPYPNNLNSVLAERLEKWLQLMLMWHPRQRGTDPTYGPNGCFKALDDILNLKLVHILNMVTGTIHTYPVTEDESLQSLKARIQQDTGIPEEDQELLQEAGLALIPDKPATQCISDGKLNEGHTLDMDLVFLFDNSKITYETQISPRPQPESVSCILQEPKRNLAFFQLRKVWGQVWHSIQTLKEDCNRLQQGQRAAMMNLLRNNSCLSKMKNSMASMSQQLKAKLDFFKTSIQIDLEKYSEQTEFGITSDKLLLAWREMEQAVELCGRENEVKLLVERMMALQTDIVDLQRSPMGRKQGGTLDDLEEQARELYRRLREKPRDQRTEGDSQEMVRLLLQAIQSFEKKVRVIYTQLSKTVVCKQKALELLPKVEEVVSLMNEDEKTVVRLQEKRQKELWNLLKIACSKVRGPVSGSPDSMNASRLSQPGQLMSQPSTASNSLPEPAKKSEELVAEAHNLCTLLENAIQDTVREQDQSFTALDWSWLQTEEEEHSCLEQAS", "test": "Binding affinity to wild-type human full length IKK-beta (M1 to S756 residues) expressed in mammalian expression system assessed as residual binding level at 10 uM by Kinomescan method relative to control"}, "[6]": {"system": "Mast/stem cell growth factor receptor Kit (Homo sapiens), P10721 [V559D]", "test": "Binding affinity to human partial length KIT V559D mutant (Y545 to D952 residues) expressed in bacterial expression system assessed as residual binding level at 10 uM by Kinomescan method relative to control"}, "[7]": {"target": "Serine/threonine-protein kinase pim-2 (Homo sapiens) (UniProt Q9P1W9)", "sequence (Q9P1W9 whole entry, looked up, the tested form may be a part)": "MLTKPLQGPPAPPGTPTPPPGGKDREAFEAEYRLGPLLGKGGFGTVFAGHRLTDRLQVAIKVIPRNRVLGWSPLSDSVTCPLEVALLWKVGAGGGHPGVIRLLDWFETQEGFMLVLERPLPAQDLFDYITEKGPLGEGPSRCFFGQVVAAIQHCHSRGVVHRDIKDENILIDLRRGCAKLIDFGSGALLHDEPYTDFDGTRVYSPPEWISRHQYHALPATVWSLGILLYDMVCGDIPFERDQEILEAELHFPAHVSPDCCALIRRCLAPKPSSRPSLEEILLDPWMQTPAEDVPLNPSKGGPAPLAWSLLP", "test": "Binding affinity to wild-type human partial length PIM2 (M1 to E291 residues) expressed in bacterial expression system assessed as residual binding level at 10 uM by Kinomescan method relative to control"}, "[8]": {"target": "Receptor tyrosine-protein kinase erbB-3 (Homo sapiens) (UniProt P21860)", "test": "Binding affinity to wild-type human partial length ERBB3 (G684 to A987 residues) expressed in mammalian expression system assessed as residual binding level at 10 uM by Kinomescan method relative to control"}, "[9]": {"system": "Tyrosine-protein kinase ABL1 (Homo sapiens), P00519 [Q252H]", "test": "Binding affinity to human non-phosphorylated ABL1 Q252H mutant (S229 to K512 residues) expressed in mammalian expression system assessed as residual binding level at 10 uM by Kinomescan method relative to control"}, "[10]": {"test": "Stability of compound in D2O at 0.012 mmol followed by TBHP addition measured after 24 hrs by 1H-NMR spectroscopy", "assay_type": "physicochemical"}, "[11]": {"target": "Ribosomal protein S6 kinase alpha-1 (Homo sapiens) (UniProt Q15418)", "sequence (Q15418 whole entry, the tested form may be a part)": "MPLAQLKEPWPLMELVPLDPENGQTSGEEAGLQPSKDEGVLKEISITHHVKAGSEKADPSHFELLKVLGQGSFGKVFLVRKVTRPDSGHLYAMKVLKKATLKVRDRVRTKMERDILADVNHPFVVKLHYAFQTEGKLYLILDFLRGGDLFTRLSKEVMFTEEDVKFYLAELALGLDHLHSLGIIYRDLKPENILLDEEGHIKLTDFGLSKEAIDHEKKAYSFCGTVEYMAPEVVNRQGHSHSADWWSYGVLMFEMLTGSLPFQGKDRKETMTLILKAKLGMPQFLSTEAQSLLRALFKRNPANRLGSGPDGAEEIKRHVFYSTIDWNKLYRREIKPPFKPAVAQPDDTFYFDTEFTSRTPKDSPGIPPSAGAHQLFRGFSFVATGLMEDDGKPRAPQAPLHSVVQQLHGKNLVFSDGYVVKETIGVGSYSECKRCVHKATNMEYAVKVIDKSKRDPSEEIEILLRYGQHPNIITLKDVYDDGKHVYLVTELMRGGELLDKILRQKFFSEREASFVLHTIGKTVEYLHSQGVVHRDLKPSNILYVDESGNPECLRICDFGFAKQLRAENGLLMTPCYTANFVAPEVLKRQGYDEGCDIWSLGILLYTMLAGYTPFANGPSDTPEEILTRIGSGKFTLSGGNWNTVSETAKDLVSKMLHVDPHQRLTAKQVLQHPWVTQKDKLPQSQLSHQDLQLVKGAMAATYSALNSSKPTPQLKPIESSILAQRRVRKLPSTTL", "test": "Binding affinity to wild-type human partial length C- terminal RSK1 kinase domain 2 (P360 to L681 residues) expressed in bacterial expression system assessed as residual binding level at 10 uM by Kinomescan method relative to control"}, "[12]": {"target": "Serine/threonine-protein kinase TAO1 (Homo sapiens) (UniProt Q7L7X3)", "test": "Binding affinity to wild-type human partial length TAOK1 (M1 to A320 residues) expressed in mammalian expression system assessed as residual binding level at 10 uM by Kinomescan method relative to control"}, "[13]": {"target": "Transient receptor potential cation channel subfamily M member 6 (Homo sapiens) (UniProt Q9BX84)", "test": "Binding affinity to wild-type human partial length TRPM6 (Q1723 to I1998 residues) expressed in mammalian expression system assessed as residual binding level at 10 uM by Kinomescan method relative to control"}, "[14]": {"target": "RAC-gamma serine/threonine-protein kinase (Homo sapiens) (UniProt Q9Y243)", "test": "Binding affinity to wild-type human partial length AKT3 expressed in bacterial expression system assessed as residual binding level at 10 uM by Kinomescan method relative to control"}, "[15]": {"target": "Vascular endothelial growth factor receptor 2 (Homo sapiens) (UniProt P35968)", "test": "Binding affinity to wild-type human partial length VEGFR2 (R787 to P1253 residues) expressed in mammalian expression system assessed as residual binding level at 10 uM by Kinomescan method relative to control"}, "[16]": {"target": "Inhibitor of nuclear factor kappa-B kinase subunit alpha (Homo sapiens) (UniProt O15111)", "test": "Binding affinity to wild-type human full length IKK-alpha (M1 to E745 residues) expressed in mammalian expression system assessed as residual binding level at 10 uM by Kinomescan method relative to control"}, "[17]": {"target": "Protein-tyrosine kinase 6 (Homo sapiens) (UniProt Q13882)", "sequence (Q13882 whole entry, looked up, the tested form may be a part)": "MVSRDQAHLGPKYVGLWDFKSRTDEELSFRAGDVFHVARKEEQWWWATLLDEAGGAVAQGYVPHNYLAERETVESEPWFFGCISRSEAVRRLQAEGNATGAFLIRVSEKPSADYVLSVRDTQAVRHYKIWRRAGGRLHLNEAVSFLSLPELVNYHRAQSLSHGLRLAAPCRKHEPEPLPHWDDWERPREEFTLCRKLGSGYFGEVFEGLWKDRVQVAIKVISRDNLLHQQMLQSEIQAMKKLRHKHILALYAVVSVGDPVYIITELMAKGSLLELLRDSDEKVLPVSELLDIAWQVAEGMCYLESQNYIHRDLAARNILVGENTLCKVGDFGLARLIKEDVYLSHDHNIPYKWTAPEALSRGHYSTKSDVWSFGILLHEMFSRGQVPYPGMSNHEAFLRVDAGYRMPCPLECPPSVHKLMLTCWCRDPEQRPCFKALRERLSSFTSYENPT", "test": "Binding affinity to wild-type human partial length BRK (L166 to T451 residues) expressed in bacterial expression system assessed as residual binding level at 10 uM by Kinomescan method relative to control"}, "[18]": {"target": "Ephrin type-A receptor 5 (Homo sapiens) (UniProt P54756)", "test": "Binding affinity to wild-type human partial length EPHA5 (T627 to V930 residues) expressed in bacterial expression system assessed as residual binding level at 10 uM by Kinomescan method relative to control"}, "[19]": {"target": "Serine/threonine-protein kinase PAK 2 (Homo sapiens) (UniProt Q13177)", "sequence (Q13177 whole entry, the tested form may be a part)": "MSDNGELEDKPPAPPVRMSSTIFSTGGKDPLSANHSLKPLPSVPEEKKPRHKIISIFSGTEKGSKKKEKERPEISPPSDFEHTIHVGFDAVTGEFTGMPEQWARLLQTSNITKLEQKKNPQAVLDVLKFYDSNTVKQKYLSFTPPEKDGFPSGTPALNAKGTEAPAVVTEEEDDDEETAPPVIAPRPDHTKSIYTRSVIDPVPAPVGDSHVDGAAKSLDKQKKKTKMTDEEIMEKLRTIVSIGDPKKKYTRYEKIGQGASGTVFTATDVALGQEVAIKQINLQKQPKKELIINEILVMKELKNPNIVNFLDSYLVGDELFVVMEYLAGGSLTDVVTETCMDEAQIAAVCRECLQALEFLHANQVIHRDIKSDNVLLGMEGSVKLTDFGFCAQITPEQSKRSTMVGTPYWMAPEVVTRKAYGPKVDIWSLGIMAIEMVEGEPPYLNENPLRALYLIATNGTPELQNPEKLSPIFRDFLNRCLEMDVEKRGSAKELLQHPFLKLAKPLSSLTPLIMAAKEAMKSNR", "test": "Binding affinity to wild-type human partial length PAK2 (P151 to R525 residues) expressed in bacterial expression system assessed as residual binding level at 10 uM by Kinomescan method relative to control"}, "[20]": {"target": "Serine/threonine-protein kinase Nek10 (Homo sapiens) (UniProt Q6ZWH5)", "test": "Binding affinity to wild-type human partial length NEK10 (L488 to R809 residues) expressed in mammalian expression system assessed as residual binding level at 10 uM by Kinomescan method relative to control"}, "[21]": {"target": "MAP/microtubule affinity-regulating kinase 4 (Homo sapiens) (UniProt Q96L34)", "sequence (Q96L34 whole entry, the tested form may be a part)": "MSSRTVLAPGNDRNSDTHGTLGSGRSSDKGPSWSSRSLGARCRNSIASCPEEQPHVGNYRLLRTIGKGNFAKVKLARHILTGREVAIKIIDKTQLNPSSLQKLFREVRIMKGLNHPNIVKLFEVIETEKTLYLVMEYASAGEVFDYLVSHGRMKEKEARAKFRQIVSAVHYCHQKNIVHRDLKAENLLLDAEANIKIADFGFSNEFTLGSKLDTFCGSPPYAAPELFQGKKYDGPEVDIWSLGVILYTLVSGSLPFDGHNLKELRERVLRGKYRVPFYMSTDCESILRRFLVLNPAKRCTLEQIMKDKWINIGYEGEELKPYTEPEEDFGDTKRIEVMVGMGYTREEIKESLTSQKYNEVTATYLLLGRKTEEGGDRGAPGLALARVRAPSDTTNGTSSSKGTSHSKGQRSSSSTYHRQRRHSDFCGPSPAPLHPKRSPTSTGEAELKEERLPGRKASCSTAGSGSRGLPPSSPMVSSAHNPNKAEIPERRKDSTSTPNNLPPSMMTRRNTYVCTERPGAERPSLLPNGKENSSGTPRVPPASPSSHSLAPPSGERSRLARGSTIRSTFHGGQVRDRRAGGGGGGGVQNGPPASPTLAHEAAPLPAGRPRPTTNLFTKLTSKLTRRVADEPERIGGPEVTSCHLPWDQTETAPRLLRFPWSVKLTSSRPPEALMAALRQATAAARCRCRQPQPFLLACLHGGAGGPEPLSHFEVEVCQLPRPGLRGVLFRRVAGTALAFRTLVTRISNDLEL", "test": "Binding affinity to wild-type human partial length MARK4 (K29 to G340 residues) expressed in bacterial expression system assessed as residual binding level at 10 uM by Kinomescan method relative to control"}, "[22]": {"target": "Platelet-derived growth factor receptor alpha (Homo sapiens) (UniProt P16234)", "test": "Binding affinity to wild-type human partial length PDGFRA (V575 to D1002 residues) expressed in mammalian expression system assessed as residual binding level at 10 uM by Kinomescan method relative to control"}, "[23]": {"target": "Mitogen-activated protein kinase 9 (Homo sapiens) (UniProt P45984)", "sequence (P45984 whole entry, looked up, the tested form may be a part)": "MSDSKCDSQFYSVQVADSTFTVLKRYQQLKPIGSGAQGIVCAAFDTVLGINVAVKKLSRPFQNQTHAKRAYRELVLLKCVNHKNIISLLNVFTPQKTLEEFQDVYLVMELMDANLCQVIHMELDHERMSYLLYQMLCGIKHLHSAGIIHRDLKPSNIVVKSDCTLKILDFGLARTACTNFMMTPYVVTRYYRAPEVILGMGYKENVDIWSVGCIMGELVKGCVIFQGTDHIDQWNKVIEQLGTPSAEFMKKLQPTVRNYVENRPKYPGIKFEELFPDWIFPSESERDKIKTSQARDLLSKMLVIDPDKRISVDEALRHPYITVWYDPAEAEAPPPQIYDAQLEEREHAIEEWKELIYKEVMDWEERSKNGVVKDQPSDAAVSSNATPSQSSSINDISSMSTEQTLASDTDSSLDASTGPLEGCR", "test": "Binding affinity to wild-type human full length JNK2 (M1 to Q382 residues) expressed in mammalian expression system assessed as residual binding level at 10 uM by Kinomescan method relative to control"}, "[24]": {"target": "Serine/threonine-protein kinase WNK1 (Homo sapiens) (UniProt Q9H4A3)", "test": "Binding affinity to wild-type human partial length WNK1 (Q194 to A490 residues) expressed in mammalian expression system assessed as residual binding level at 10 uM by Kinomescan method relative to control"}}, "note": "The source made the active and inactive calls. The calls are words filed in the database; no cut-off is given here.", "data": [{"smiles": "CC(C)N1C(=O)C(NCCCN(C)C)=C(c2cn(C)c3ccccc23)C1=O.Cl", "values": [{"measurement": "Activity", "setting": "[1]", "value": 94, "unit": "%"}, {"measurement": "Activity", "setting": "Jurkat", "value": "inactive"}, {"measurement": "Activity", "setting": "[2]", "value": 100, "unit": "%"}, {"measurement": "Activity", "setting": "[3]", "value": 90, "unit": "%"}, {"measurement": "Activity", "setting": "[4]", "value": 78, "unit": "%"}, {"measurement": "Activity", "setting": "[5]", "value": 83, "unit": "%"}, {"measurement": "Activity", "setting": "[6]", "value": 96, "unit": "%"}, {"measurement": "Activity", "setting": "[7]", "value": 100, "unit": "%"}, {"measurement": "Activity", "setting": "[8]", "value": 93, "unit": "%"}, {"measurement": "Activity", "setting": "[9]", "value": 100, "unit": "%"}, {"measurement": "Stability", "setting": "[10]", "value": "Stable"}, {"measurement": "Activity", "setting": "[11]", "value": 100, "unit": "%"}, {"measurement": "Activity", "setting": "[12]", "value": 78, "unit": "%"}, {"measurement": "Activity", "setting": "[13]", "value": 97, "unit": "%"}, {"measurement": "Activity", "setting": "[14]", "value": 99, "unit": "%"}, {"measurement": "Activity", "setting": "[15]", "value": 66, "unit": "%"}, {"measurement": "Activity", "setting": "[16]", "value": 81, "unit": "%"}, {"measurement": "Activity", "setting": "[17]", "value": 100, "unit": "%"}, {"measurement": "Activity", "setting": "[18]", "value": 96, "unit": "%"}, {"measurement": "Activity", "setting": "[19]", "value": 100, "unit": "%"}, {"measurement": "Activity", "setting": "[20]", "value": 95, "unit": "%"}, {"measurement": "Activity", "setting": "[21]", "value": 64, "unit": "%"}, {"measurement": "Activity", "setting": "[22]", "value": 86, "unit": "%"}, {"measurement": "Activity", "setting": "[23]", "value": 80, "unit": "%"}, {"measurement": "Activity", "setting": "[24]", "value": 68, "unit": "%"}]}]}
